Results published in US20230303494A1, “BENZYLAMINE DERIVATIVE, PREPARATION METHOD THEREFOR AND USE THEREOF” (ACADEMY OF MILITARY MEDICAL SCIENCES, priority 2020, published 2023).

Tests used:
[1] = test system: Human peripheral blood mononuclear cells (PBMCs); experiment: Promotion of IFN-γ secretion in PBMCs treated with anti-CD3/anti-CD28 and PDL1/FC fusion protein (ELISA); type: cell-based; conditions: hPD-L1 10.0 μg/mL, 72 h
Procedure: Human peripheral blood mononuclear cells (PBMCs) were isolated from 10-15 ml of whole blood of healthy volunteers using experimental human lymphocyte separation medium (TBD sciences). The cells were washed twice with normal saline and resuspended in buffer (RPMI 1640 complete medium containing 10% FBS, SIGMA) to count the cell density. The PBMCs were dispersed and placed in a 96-well plate, 1×10^5 cells and 50 μL of buffer per well. Anti-CD3 antibody (SIGMA) and anti-CD28 antibody (SIGMA) were mixed at a ratio of 1:1 to obtain an antibody mixture. The antibody mixture was added to the wells to ensure that the final concentration of antibody was 0.8 μg/mL. At the same time, PDL1/FC fusion protein (SINO BIOLOGICAL) was added to reach a final concentration of 10.0 μg/mL, and the compound to be tested was diluted with buffer and added to the wells to reach a final concentration of 0.1 μM or 1 μM. The mixed system was incubated at 37° C. and 5% CO2 for 72 h. The supernatant was collected, and the expression level of IFN-γ was measured by ELISA MAXTM Human IFN-γ Standard Kit (BioLegend), and the increase rate was calculated. Increase rate (%)=(expression amount of compound treatment−expression amount of PDL1 treatment)/expression amount of PDL1 treatment×100%

PD-1/PD-L1 interaction = PD-1/PD-L1 interaction (Homo sapiens (Human), UniProt Q9NZQ7); experiment: PD-1/PD-L1 Binding Assay kit (Cisbio), HTRF; conditions: 8-10 concentrations, read-out: IC50 of inhibition of PD-1/PD-L1 interaction
Sequence of PD-1/PD-L1 interaction (Q9NZQ7 19-238): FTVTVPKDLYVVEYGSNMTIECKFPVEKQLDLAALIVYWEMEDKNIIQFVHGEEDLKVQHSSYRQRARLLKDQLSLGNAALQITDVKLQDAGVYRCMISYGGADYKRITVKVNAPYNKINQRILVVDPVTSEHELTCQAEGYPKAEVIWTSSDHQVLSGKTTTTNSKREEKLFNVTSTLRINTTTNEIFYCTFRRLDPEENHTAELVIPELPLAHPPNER

human PD-L1 = human PD-L1 (Homo sapiens (Human), UniProt Q9NZQ7); experiment: Biofilm interferometry (BLI, OctetRED) binding to human PD-L1/AVI; conditions: 1:1 binding model; for koff: read-out: Kdis
Sequence of human PD-L1 (Q9NZQ7 19-290): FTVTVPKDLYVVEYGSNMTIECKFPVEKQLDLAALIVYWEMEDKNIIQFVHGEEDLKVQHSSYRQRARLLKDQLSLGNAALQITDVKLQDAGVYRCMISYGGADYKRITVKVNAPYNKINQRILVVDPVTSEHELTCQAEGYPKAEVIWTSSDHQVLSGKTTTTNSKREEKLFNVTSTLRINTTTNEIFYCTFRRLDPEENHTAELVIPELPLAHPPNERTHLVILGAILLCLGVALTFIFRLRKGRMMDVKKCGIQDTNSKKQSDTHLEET
Procedure: In the experiment, the instrument OctectRED of Fortebio Company based on biofilm interferometry (BLI) technology was used to capture human PD-L1/AVI with SA chips. The concentration of antigen PD-L1/AVI was diluted to 10 μg/mL with running buffer (PBS+0.02% Tween-20+2% DMSO), and the loading time was 300 s; similarly, the analyte was also diluted to the corresponding concentrations (20 nM, 10 nM, 5 nM, 2.5 nM, 1.25 nM, 0.625 nM, 0.3125 nM) with running buffer in gradient manner, and a buffer blank control group was set at the same time. The binding time of human PD-L1/AVI to the analyte was 180 s, and the dissociation time was 300 s; the chip was regenerated with 10 mM glycine HCl, pH 1.7 solution and repeated 5-second pulse for 3 times. The data were fitted to a 1:1 binding model to determine the equilibrium dissociation constant KD.

Raji cells = experiment: Cytotoxicity, Cell Titer-Glo, Raji cells; type: cell-based; conditions: Homo sapiens, 24 hours incubation, read-out: Raji cells IC50 (cell death)
Procedure: (§1) The raji (ATCC), raw (ATCC) and PBMCs cells were suspended in buffer (RPMI 1640 complete medium containing 10% FBS, SIGMA), respectively, and the cell density was counted. The cells were transferred to wells of a 96-well plate, ensuring that the cell density of each well was 1×10^4 cells/well, and incubated for 24 hours at 37° C., 5% CO2 with compounds at different concentrations (100 μM, 50 μM, 25 μM, 12.5 μM, 6.25 μM and 3.125 μM) and buffer control solution (0.2% DMSO). To each well, 100 μL of Cell Titer-Glo Luminescent Solution (Promega) was added and shaken for 10 minutes at room temperature, and then GloMax® Navigator System was used to measure the system […], and the cell death rate was calculated. Cell death rate (%)=(1−RLUcompound/RLUcontrol)×100%, and IC50 was determined from the inhibition curve.

Raw cells = experiment: Cytotoxicity, Cell Titer-Glo, Raw cells; type: cell-based; conditions: 24 hours incubation; read-out: Raw cells IC50 (cell death)
Procedure: as §1

PBMCs cells = experiment: Cytotoxicity, Cell Titer-Glo, PBMCs cells; type: cell-based; conditions: Homo sapiens, PBMC; 24 hours incubation; read-out: PBMCs cells IC50 (cell death)
Procedure: as §1

SMILES: COc1nc(OCc2cccc(-c3ccccc3)c2C)ccc1CNCCNC(C)=O [BMS202]
- IFN-γ ([1]; compound 0.1 μM): 35100 pg/mL
- Increase rate of IFN-γ expression vs PDL1 treatment ([1]; compound 0.1 μM): 64.8%
- IFN-γ ([1]; compound 1.0 μM): 39100 pg/mL
- Increase rate of IFN-γ expression vs PDL1 treatment ([1]; compound 1.0 μM): 83.6%

SMILES: CC(=O)NCCNCc1ccc(NCc2cccc(-c3ccccc3)c2C)cc1OCc1cccc(C#N)c1 [Compound 1]
- IC50 (PD-1/PD-L1 interaction): 4.94 µM

SMILES: Cc1c(CNc2ccc(CNCCO)c(OCc3cccc(C#N)c3)c2)cccc1-c1ccccc1 [Compound 2]
- IC50 (PD-1/PD-L1 interaction): 3.67 µM

SMILES: Cc1c(CNc2ccc(CNC(CO)CO)c(OCc3cccc(C#N)c3)c2)cccc1-c1ccccc1 [Compound 3]
- IC50 (PD-1/PD-L1 interaction): 2.6 µM

SMILES: Cc1c(CNc2ccc(CN[C@H](CO)C(=O)O)c(OCc3cccc(C#N)c3)c2)cccc1-c1ccccc1 [Compound 4]
- Kd (human PD-L1): 0.00181 µM
- kon (human PD-L1): 651000 M⁻¹ s⁻¹
- koff (human PD-L1): 0.00118 s⁻¹
- IC50 (Raji cells): > 100 µM
- IC50 (Raw cells): > 100 µM
- IC50 (PBMCs cells): > 100 µM
- IC50 (PD-1/PD-L1 interaction): 1.16 µM

SMILES: Cc1cc(NCc2cccc(-c3ccccc3)c2C)cc(OCc2cccc(C#N)c2)c1CN[C@H](CO)C(=O)O [Compound 6]
- IC50 (PD-1/PD-L1 interaction): 0.436 µM

SMILES: Cc1cc(NCc2cccc(-c3ccccc3)c2C)cc(OCc2cncc(C#N)c2)c1CN[C@H](CO)C(=O)O [Compound 7]
- IC50 (PD-1/PD-L1 interaction): 0.363 µM

SMILES: COc1cc(NCc2cccc(-c3ccccc3)c2C)cc(OCc2cccc(C#N)c2)c1CN[C@H](CO)C(=O)O [Compound 8]
- IC50 (Raji cells): > 100 µM
- IC50 (Raw cells): > 100 µM
- IC50 (PBMCs cells): > 100 µM
- IC50 (PD-1/PD-L1 interaction): 0.672 µM

SMILES: COc1nc(NCc2cccc(-c3ccccc3)c2C)ccc1CNCCNC(C)=O [Compound 9]
- IC50 (PD-1/PD-L1 interaction): 4.24 µM

SMILES: COc1cc(NCc2cccc(-c3ccccc3)c2C)c(Cl)cc1CN[C@H](CO)C(=O)O [Compound 11]
- Kd (human PD-L1): 0.000515 µM
- kon (human PD-L1): 1.29e+06 M⁻¹ s⁻¹
- koff (human PD-L1): 0.000664 s⁻¹
- IC50 (PD-1/PD-L1 interaction): 0.107 µM

SMILES: COc1nc(NCc2cccc(-c3ccccc3)c2C)ccc1CN[C@H](CO)C(=O)O [Compound 12]
- IC50 (PD-1/PD-L1 interaction): 4.54 µM

SMILES: COc1cc(NCc2cccc(-c3ccccc3)c2C)c(C)cc1CNC(CO)C(=O)O (centres unmarked) [Compound 14]
- IC50 (Raji cells): > 100 µM
- IC50 (Raw cells): > 100 µM
- IC50 (PBMCs cells): > 100 µM

SMILES: COc1cc(NCc2cccc(-c3ccccc3)c2C)ncc1CN[C@H](CO)C(=O)O [Compound 15]
- IC50 (PD-1/PD-L1 interaction): 2.63 µM

SMILES: Cc1cc(CN[C@H](CO)C(=O)O)c(OCc2cccnc2)cc1NCc1cccc(-c2ccccc2)c1C [Compound 17]
- IC50 (Raji cells): 78.9 µM
- IC50 (Raw cells): 61.6 µM
- IC50 (PBMCs cells): > 100 µM
- IC50 (PD-1/PD-L1 interaction): 0.092 µM

SMILES: Cc1cc(CN[C@@H](CO)CC(=O)O)c(OCc2cncc(C#N)c2)cc1NCc1cccc(-c2ccccc2)c1C [Compound 18]
- IC50 (PD-1/PD-L1 interaction): 0.023 µM

SMILES: Cc1cc(CN[C@H](CO)C(=O)O)c(OCc2cccc(C#N)c2)cc1NCc1cccc(-c2ccccc2)c1C [Compound 19]
- IC50 (PD-1/PD-L1 interaction): 0.165 µM

SMILES: CCOc1cc(NCc2cccc(-c3ccccc3)c2C)c(C)cc1CN[C@H](CO)C(=O)O [Compound 20]
- IC50 (PD-1/PD-L1 interaction): 0.347 µM

SMILES: Cc1cc(CN2C[C@H](O)C[C@H]2C(=O)O)c(OCc2cncc(C#N)c2)cc1NCc1cccc(-c2ccccc2)c1C [Compound 21]
- IC50 (Raji cells): > 100 µM
- IC50 (Raw cells): 88.2 µM
- IC50 (PBMCs cells): 75.5 µM
- IC50 (PD-1/PD-L1 interaction): 0.024 µM

SMILES: Cc1cc(CNC[C@@H](O)CC(=O)O)c(OCc2cncc(C#N)c2)cc1NCc1cccc(-c2ccccc2)c1C [Compound 22]
- IC50 (PD-1/PD-L1 interaction): 0.017 µM

SMILES: Cc1cc(CN2C[C@@H](O)CC2=O)c(OCc2cncc(C#N)c2)cc1NCc1cccc(-c2ccccc2)c1C [Compound 23]
- IC50 (PD-1/PD-L1 interaction): 0.036 µM

SMILES: Cc1cc(CN[C@H](CCO)C(=O)O)c(OCc2cncc(C#N)c2)cc1NCc1cccc(-c2ccccc2)c1C [Compound 24]
- IC50 (PD-1/PD-L1 interaction): 1.33 µM

SMILES: Cc1cc(CN[C@H](CC(N)=O)C(=O)O)c(OCc2cncc(C#N)c2)cc1NCc1cccc(-c2ccccc2)c1C [Compound 25]
- IC50 (PD-1/PD-L1 interaction): 0.047 µM

SMILES: Cc1c(CN(C)c2ccc(CN[C@H](CO)C(=O)O)c(OCc3cccc(C#N)c3)c2)cccc1-c1ccccc1 [Compound 26]
- IC50 (PD-1/PD-L1 interaction): > 100 µM

SMILES: Cc1c(CN(C)c2ccc(CNCCO)c(OCc3cccc(C#N)c3)c2)cccc1-c1ccccc1 [Compound 27]
- IC50 (Raji cells): 84.1 µM
- IC50 (Raw cells): > 100 µM
- IC50 (PBMCs cells): > 100 µM
- IC50 (PD-1/PD-L1 interaction): 22.6 µM

SMILES: Cc1c(NCc2ccc(CN[C@H](CO)C(=O)O)c(OCc3cncc(C#N)c3)c2)cccc1-c1ccccc1 [Compound 28]
- IC50 (PD-1/PD-L1 interaction): 0.191 µM

SMILES: Cc1cc(CN[C@H](CO)C(=O)O)c(OCc2cncc(C#N)c2)cc1NCc1cccc(-c2ccccc2)c1C(F)(F)F [Compound 29]
- IC50 (PD-1/PD-L1 interaction): 0.61 µM

SMILES: N#Cc1cncc(COc2cc(NCc3cccc(-c4ccccc4)c3C(F)(F)F)ccc2CN[C@H](CO)C(=O)O)c1 [Compound 30]
- IC50 (PD-1/PD-L1 interaction): 2.93 µM

SMILES: N#Cc1cncc(COc2cc(NCc3cccc(-c4ccccc4)c3Br)ccc2CNC(CO)C(=O)O)c1 (centres unmarked) [Compound 31]
- IC50 (Raji cells): > 100 µM
- IC50 (Raw cells): > 100 µM
- IC50 (PBMCs cells): > 100 µM

SMILES: N#Cc1cccc(COc2cc(NCc3cccc(-c4ccccc4)c3Br)ccc2CNC(CO)C(=O)O)c1 (centres unmarked) [Compound 33]
- IC50 (PD-1/PD-L1 interaction): 0.637 µM

SMILES: Cc1c(CNc2ccc(CN[C@H](CO)C(=O)O)c(OCc3cccc(C#N)c3)c2)cccc1-c1ccc2c(c1)OCCO2 [Compound 34]
- IC50 (Raji cells): 90.3 µM
- IC50 (Raw cells): > 100 µM
- IC50 (PBMCs cells): > 100 µM
- IC50 (PD-1/PD-L1 interaction): 0.435 µM

SMILES: Cc1c(COc2ccc(CNC(CO)C(=O)O)c(OCc3cncc(C#N)c3)c2)cccc1-c1ccccc1 (centres unmarked) [Compound 37, reference compound]
- Kd (human PD-L1): 0.0675 µM
- kon (human PD-L1): 12600 M⁻¹ s⁻¹
- koff (human PD-L1): 0.000851 s⁻¹
- IC50 (Raji cells): 22.6 µM
- IC50 (Raw cells): 31.2 µM
- IC50 (PBMCs cells): 16.8 µM
- IFN-γ ([1]; compound 0.1 μM): 23200 pg/mL
- Increase rate of IFN-γ expression vs PDL1 treatment ([1]; compound 0.1 μM): 8.9%
- IFN-γ ([1]; compound 1.0 μM): 25100 pg/mL
- Increase rate of IFN-γ expression vs PDL1 treatment ([1]; compound 1.0 μM): 17.8%

SMILES: Cc1c(COc2ccc(CN[C@H](CO)C(=O)O)c(OCc3cncc(C#N)c3)c2)cccc1-c1ccccc1 [Compound 37, reference compound]
- IC50 (PD-1/PD-L1 interaction): 0.323 µM

SMILES: Cc1c(C#N)cncc1COc1cc(OCc2cccc(-c3ccccc3)c2C)ccc1CNC(CO)C(=O)O (centres unmarked) [Compound 38, reference compound]
- IC50 (Raji cells): 32.1 µM
- IC50 (Raw cells): 28.8 µM
- IC50 (PBMCs cells): 26.6 µM
- IFN-γ ([1]; compound 0.1 μM): 23300 pg/mL
- Increase rate of IFN-γ expression vs PDL1 treatment ([1]; compound 0.1 μM): 9.4%
- IFN-γ ([1]; compound 1.0 μM): 22600 pg/mL
- Increase rate of IFN-γ expression vs PDL1 treatment ([1]; compound 1.0 μM): 6.1%

SMILES: Cc1c(C#N)cncc1COc1cc(OCc2cccc(-c3ccccc3)c2C)ccc1CN[C@H](CO)C(=O)O [Compound 38, reference compound]
- IC50 (PD-1/PD-L1 interaction): 1.04 µM
